Reference: ChEMBL document CHEMBL1155652, “Synthesis of the marine sponge cycloheptapeptide phakellistatin 5(1)” (2000)
Where a SMILES comes first, the peptide text is derived from it. [ ]: non-standard residue; d: D form.

How the values were obtained:
Type in all cases: functional
OVCAR-3 = assay: Growth inhibition of human OVCAR-3 cells
SK-MEL-5 = assay: Growth inhibition of human SK-MEL-5 cells
P388 = assay: Growth inhibition of mouse P388 cells
KM-20L2 = assay: Growth inhibition of human KM20L2 cells
SF-295 = assay: Growth inhibition of human SF295 cells
DU-145 = assay: Growth inhibition of human DU145 cells
NCI-H460 = assay: Growth inhibition of human NCI-H460 cells

Measured: GI50

CC[C@H](C)[C@@H]1NC(=O)[C@H](C)NC(=O)[C@H](CCSC)NC(=O)[C@H](C)NC(=O)[C@H](CC(N)=O)NC(=O)[C@H](Cc2ccccc2)NC(=O)[C@@H]2CCCN2C1=O [(S)-ASN-PHAKELLISTATIN 5] (cyclo(AIPFNAM))
> 10 mg/L: all assays above

CC[C@H](C)[C@@H]1NC(=O)[C@H](C)NC(=O)[C@H](CCSC)NC(=O)[C@H](C)NC(=O)[C@@H](CC(N)=O)NC(=O)[C@H](Cc2ccccc2)NC(=O)[C@@H]2CCCN2C1=O [(R)-ASN-PHAKELLISTATIN 5] (cyclo(AIPF[dN]AM))
> 10 mg/L: all assays above
